pIC50: −log10 of the molar value. Each block holds one compound with its values, some of them ahead of it.
What was measured:
[1] = biological target: Ribosomal protein S6 kinase alpha-1 (Homo sapiens, UniProt Q15418); details: at 10 µM
[2] = biological target: Histone-lysine N-methyltransferase SETDB1 (Homo sapiens) (UniProt Q15047); assay: Selectivity interaction (Methyltransferase screen (radiometric assays, panel of 8 PRMTs, 21 protein lysine methyltransferases, 3 DNA methyltransferases, and one RNA methyltransferase)) EUB0000272b SETDB1
[3] = biological target: Serine/threonine-protein kinase 24 (Homo sapiens) (UniProt Q9Y6E0); assay: Selectivity interaction (Kinase panel (DSF assay)) EUB0001559a STK24
[4] = biological target: T1, Uncharacterized serine/threonine-protein kinase SBK3 (Homo sapiens) (UniProt P0C264); assay: Selectivity interaction (KinomeScan (DiscoverX)) EUB0000655a SBK3; details: at 10 µM
T1 sequence (whole entry): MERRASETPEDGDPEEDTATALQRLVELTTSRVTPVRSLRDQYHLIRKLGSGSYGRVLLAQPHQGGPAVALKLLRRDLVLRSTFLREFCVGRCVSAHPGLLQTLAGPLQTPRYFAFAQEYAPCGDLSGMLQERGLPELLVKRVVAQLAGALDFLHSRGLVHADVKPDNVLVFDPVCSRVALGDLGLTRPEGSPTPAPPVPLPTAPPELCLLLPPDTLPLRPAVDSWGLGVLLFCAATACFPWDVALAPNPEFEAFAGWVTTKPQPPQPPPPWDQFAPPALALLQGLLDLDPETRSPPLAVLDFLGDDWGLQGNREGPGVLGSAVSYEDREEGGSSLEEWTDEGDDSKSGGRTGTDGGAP

[5] = biological target: T2, Mitogen-activated protein kinase 13 (Homo sapiens) (UniProt O15264); assay: Selectivity interaction (KinomeScan (DiscoverX)) EUB0000655a MAPK13; details: at 10 µM
T2 sequence (whole entry): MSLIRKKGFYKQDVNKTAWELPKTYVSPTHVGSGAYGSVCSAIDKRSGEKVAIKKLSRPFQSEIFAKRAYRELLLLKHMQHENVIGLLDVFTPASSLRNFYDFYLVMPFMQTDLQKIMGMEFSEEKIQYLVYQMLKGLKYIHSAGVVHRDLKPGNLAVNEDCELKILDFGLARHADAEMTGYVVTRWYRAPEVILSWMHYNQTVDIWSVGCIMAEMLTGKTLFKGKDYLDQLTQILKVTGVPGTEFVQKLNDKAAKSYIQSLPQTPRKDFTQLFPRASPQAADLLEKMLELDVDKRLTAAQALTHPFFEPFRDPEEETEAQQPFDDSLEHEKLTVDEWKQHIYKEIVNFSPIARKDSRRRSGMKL

[6] = biological target: DNA-dependent protein kinase catalytic subunit (Homo sapiens) (UniProt P78527); assay: Selectivity interaction (ActivX KiNativ screen (ex vivo kinase selectivity in human PBMCs)) EUB0001619a PRKDC; format: cell-based; details: PBMC, at 1 µM
[7] = biological target: T3, Mitogen-activated protein kinase kinase kinase kinase 3 (Homo sapiens) (UniProt Q8IVH8); assay: Selectivity interaction (KinomeScan (DiscoverX)) EUB0000595a MAP4K3; details: at 10 µM
T3 sequence (whole entry): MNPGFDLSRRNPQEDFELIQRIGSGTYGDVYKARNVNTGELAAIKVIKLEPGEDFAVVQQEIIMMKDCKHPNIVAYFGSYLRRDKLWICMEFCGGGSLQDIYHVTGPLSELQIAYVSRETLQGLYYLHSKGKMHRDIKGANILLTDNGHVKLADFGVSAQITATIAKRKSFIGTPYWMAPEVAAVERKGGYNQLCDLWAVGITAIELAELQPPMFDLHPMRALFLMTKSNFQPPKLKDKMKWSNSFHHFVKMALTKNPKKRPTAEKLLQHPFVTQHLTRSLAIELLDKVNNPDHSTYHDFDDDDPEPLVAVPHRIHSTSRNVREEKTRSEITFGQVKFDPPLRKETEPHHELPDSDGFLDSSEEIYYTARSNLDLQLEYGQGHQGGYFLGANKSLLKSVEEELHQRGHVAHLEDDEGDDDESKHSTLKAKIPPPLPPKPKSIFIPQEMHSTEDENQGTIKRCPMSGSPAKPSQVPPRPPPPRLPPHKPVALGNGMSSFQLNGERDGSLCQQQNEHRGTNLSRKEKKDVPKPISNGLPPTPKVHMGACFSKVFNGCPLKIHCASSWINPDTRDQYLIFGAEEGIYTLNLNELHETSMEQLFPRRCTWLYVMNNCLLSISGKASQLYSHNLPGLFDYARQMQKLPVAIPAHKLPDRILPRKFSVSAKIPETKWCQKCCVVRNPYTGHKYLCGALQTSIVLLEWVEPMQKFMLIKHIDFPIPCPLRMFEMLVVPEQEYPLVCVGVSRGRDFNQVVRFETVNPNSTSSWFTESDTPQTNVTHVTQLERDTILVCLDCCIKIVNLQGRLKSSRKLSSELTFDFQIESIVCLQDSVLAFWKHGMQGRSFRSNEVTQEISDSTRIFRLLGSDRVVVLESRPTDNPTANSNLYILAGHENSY

[8] = biological target: Serine/threonine-protein kinase PRP4 homolog (Homo sapiens) (UniProt Q13523); assay: Selectivity interaction (ActivX KiNativ screen (kinase selectivity in THP-1 cell lysates)) EUB0000639a PRPF4; format: subcellular; details: lysate, at 0.04 µM
Chain of Serine/threonine-protein kinase PRP4 homolog (Homo sapiens) (Q13523 whole entry): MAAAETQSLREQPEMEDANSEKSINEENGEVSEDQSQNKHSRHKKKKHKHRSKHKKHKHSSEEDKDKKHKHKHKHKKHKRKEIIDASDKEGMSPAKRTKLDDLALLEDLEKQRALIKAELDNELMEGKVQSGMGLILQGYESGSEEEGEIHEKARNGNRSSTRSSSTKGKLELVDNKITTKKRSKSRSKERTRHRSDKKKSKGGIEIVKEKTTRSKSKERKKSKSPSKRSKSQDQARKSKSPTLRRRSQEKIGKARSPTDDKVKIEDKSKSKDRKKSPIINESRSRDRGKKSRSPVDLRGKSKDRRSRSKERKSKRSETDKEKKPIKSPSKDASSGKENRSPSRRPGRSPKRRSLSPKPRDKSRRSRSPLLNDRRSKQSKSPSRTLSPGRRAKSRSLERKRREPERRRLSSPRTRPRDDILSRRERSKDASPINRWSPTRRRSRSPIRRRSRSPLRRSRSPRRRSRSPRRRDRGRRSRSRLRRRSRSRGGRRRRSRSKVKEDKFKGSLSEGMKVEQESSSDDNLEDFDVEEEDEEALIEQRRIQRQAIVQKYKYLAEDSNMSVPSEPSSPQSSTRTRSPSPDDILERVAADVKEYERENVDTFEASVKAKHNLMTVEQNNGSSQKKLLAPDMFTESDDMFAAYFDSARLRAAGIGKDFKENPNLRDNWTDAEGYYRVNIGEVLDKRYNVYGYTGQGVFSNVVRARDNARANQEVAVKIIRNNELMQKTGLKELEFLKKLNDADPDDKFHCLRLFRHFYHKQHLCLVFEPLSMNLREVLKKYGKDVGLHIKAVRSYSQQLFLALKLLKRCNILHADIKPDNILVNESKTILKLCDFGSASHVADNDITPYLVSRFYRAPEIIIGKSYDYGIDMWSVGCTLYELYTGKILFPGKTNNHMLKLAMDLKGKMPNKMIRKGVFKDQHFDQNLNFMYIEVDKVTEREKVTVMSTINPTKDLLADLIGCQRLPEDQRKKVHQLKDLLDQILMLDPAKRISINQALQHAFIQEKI

[9] = biological target: Glycogen synthase kinase-3 beta (Homo sapiens, UniProt P49841)
[10] = biological target: Tyrosine-protein kinase Fes/Fps (Homo sapiens) (UniProt P07332); assay: Selectivity interaction (ProQinase) EUB0000171b FES
Chain of Tyrosine-protein kinase Fes/Fps (Homo sapiens) (P07332 whole entry, the tested form may be a part): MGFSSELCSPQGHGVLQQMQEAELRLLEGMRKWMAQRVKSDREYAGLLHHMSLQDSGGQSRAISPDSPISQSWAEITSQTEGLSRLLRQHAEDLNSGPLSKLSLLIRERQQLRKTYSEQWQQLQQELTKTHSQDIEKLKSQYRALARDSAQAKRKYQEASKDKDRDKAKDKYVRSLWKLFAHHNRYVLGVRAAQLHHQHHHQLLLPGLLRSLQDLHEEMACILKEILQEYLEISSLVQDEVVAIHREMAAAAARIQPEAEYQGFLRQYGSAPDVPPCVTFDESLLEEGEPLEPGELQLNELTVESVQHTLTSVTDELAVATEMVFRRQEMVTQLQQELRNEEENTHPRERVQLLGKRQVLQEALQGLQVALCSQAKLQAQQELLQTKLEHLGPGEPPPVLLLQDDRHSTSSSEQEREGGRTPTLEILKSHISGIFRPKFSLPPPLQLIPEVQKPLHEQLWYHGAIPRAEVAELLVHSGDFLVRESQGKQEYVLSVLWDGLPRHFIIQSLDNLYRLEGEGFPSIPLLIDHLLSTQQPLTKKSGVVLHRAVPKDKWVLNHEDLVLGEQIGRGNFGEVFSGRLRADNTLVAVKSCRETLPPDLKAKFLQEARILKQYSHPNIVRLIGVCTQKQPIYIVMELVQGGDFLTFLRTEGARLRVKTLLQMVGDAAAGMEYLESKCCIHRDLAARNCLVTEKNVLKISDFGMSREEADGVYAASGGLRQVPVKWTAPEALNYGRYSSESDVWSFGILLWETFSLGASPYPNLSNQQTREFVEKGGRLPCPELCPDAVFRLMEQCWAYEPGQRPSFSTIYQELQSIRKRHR

[11] = biological target: Epithelial discoidin domain-containing receptor 1 (Homo sapiens) (UniProt Q08345); assay: Selectivity interaction (KinomeScan (DiscoverX)) EUB0001049a DDR1; details: at 1 µM
[12] = biological target: Calcium/calmodulin-dependent protein kinase type II subunit gamma (Homo sapiens) (UniProt Q13555); assay: Selectivity interaction (KinomeScan (DiscoverX)) EUB0001049a CAMK2G; details: at 1 µM
Chain of Calcium/calmodulin-dependent protein kinase type II subunit gamma (Homo sapiens) (Q13555 whole entry): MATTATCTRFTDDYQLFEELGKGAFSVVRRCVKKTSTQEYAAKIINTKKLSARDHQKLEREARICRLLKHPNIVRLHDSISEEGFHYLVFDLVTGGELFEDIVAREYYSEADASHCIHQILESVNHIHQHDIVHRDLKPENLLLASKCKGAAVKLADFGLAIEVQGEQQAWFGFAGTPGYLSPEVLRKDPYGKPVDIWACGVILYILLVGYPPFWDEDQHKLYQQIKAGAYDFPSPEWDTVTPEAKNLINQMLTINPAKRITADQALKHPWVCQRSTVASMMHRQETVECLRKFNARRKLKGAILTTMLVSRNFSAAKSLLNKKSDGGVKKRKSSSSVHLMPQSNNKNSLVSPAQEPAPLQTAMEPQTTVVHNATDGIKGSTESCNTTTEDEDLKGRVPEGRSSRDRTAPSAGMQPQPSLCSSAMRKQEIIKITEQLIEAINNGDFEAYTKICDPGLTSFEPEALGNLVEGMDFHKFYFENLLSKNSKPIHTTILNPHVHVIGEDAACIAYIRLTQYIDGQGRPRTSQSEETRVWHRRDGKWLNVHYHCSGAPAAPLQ

[13] = biological target: Transcription initiation factor TFIID subunit 1 (Homo sapiens) (UniProt P21675); assay: Selectivity interaction (Human bromodomain panel (DSF assay)) EUB0000233b TAF1
Chain of Transcription initiation factor TFIID subunit 1 (Homo sapiens) (P21675 whole entry): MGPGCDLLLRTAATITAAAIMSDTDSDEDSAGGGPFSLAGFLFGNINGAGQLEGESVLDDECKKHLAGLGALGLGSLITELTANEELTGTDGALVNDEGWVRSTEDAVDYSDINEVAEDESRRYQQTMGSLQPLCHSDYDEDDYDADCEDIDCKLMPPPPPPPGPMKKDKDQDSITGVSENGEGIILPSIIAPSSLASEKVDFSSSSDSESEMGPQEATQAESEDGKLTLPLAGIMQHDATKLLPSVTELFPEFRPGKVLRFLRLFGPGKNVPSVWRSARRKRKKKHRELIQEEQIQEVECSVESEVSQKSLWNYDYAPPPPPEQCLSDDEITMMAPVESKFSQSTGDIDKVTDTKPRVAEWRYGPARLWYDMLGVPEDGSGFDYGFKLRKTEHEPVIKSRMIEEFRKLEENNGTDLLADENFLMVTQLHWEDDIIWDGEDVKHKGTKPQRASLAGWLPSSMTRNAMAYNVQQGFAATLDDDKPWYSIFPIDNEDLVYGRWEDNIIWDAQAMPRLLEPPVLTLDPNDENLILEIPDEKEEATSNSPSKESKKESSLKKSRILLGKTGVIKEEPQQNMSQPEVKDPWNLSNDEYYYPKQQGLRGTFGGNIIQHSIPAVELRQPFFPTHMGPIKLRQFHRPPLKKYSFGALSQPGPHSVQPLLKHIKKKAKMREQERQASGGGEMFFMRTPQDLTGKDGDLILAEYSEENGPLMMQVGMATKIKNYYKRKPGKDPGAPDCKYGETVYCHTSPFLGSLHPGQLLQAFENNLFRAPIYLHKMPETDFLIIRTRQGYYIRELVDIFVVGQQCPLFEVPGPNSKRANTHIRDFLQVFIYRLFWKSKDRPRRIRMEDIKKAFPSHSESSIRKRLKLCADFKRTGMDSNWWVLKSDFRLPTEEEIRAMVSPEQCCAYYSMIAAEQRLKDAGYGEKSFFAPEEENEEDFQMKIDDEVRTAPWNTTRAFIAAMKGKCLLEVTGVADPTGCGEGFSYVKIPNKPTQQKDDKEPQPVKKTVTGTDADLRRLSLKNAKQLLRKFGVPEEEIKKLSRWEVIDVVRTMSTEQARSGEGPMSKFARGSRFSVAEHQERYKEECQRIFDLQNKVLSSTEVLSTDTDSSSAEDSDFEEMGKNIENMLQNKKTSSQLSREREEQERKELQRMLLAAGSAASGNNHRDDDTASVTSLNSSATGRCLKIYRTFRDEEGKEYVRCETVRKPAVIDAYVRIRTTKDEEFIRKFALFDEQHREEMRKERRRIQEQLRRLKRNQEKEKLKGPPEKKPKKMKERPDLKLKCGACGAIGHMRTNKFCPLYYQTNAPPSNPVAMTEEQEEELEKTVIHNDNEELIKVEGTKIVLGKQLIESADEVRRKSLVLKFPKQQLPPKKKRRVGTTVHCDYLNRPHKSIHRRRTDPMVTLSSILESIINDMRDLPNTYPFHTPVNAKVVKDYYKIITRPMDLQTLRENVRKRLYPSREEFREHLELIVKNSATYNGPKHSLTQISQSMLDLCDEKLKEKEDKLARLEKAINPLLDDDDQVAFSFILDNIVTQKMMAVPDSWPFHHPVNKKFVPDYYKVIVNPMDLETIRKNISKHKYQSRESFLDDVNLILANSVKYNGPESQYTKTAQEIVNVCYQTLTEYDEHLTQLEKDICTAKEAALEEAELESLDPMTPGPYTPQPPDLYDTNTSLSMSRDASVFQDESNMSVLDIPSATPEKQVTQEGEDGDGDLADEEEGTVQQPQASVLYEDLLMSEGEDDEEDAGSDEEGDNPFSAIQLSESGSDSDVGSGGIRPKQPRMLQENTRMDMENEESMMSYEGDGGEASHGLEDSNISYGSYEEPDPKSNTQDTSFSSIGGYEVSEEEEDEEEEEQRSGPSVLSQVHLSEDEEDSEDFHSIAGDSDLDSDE

[14] = biological target: MAP/microtubule affinity-regulating kinase 3 (Homo sapiens) (UniProt P27448); assay: Selectivity interaction (Kinase panel (Z-LYTE Assay)) EUB0001632a MARK3; details: at 10 µM

Chain of Ribosomal protein S6 kinase alpha-1 (Q15418 whole entry): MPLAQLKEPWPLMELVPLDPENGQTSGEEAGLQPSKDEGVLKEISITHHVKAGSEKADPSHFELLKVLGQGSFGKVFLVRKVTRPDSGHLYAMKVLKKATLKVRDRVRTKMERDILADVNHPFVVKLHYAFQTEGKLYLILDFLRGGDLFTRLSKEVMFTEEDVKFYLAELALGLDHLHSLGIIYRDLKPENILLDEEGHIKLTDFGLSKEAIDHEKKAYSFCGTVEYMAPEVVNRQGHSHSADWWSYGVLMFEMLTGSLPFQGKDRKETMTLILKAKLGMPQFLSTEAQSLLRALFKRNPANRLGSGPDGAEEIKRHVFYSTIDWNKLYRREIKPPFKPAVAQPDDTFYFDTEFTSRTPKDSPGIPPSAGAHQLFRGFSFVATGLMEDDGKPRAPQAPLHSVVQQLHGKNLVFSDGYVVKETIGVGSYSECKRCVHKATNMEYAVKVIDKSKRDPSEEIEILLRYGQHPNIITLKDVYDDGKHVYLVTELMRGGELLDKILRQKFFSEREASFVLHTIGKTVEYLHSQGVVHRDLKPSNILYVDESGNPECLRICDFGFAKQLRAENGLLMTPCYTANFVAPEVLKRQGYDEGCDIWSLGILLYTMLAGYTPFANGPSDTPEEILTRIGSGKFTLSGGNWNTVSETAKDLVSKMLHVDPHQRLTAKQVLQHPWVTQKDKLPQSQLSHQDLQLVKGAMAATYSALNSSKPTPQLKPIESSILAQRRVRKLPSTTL

Structure (SMILES): Cc1cc(C)cc([C@H]2c3cc(C)ccc3NC(=O)CN2C(=O)c2ccc(Br)s2)c1
% of activity ([2]; at 1 µM): 103% | % of activity ([2]; at 10 µM): 104%

Structure (SMILES): CN(C(=O)c1cnn2cccnc12)c1cc2c(cc1N1CCOCC1)C(=O)N(C[C@@H](F)C(C)(C)O)C2
dTM [3]: -0.3 K

Structure (SMILES): CN(C)CCOc1ccc(-c2nc(-c3ccncc3)c(-c3ccc4c(c3)CC/C4=N\O)[nH]2)cc1
% of control [4]: 100% | % of control [5]: 87%

Structure (SMILES): N#Cc1cccc(-c2c[nH]c3ncnc(N4CCOCC4)c23)c1
% of inhibition [6]: 15%

Structure (SMILES): COCC(=O)NC/C=C/c1ccc2ncnc(Nc3ccc(Oc4ccc(C)nc4)c(C)c3)c2c1 [CP-724714]
% of control [7]: 80%

Structure (SMILES): CCc1cccc(CC)c1NC(=O)c1nn(C)c2c1CCc1cnc(Nc3ccc(C(=O)NC4CCN(C)CC4)cc3OC(F)(F)F)nc1-2
pIC50 [9]: < 5.00

Structure (SMILES): COc1cc(Nc2nc(C)cc(-c3cnn4nc(OC)ccc34)n2)cc(C(F)(F)F)c1
% of control [11]: 99% | % of control [12]: 90%

Structure (SMILES): Cn1cc(-n2cnc3c(NCc4nc5cc(Cl)c(Cl)cc5[nH]4)nc(N4CCOCC4)nc32)cn1
% of control [14]: 18.1%

Results, then the compound that gave them:

% of control [1]: 100%
Structure (SMILES): CCN(CC)CCCCNc1ncc2cc(-c3cc(OC)cc(OC)c3)c(NC(=O)NC(C)(C)C)nc2n1

% of inhibition [8]: 16%
Structure (SMILES): CC[C@@H]1[C@H](F)C(=O)N[C@@H]1COc1nccc2cc(C(N)=O)c(OC)cc12 [ZIMLOVISERTIB]

% of control ([10]; at 1 µM): 88% | % of control ([10]; at 5 µM): 91%
Structure (SMILES): C=CC(=O)Nc1cccc(C(=O)Nc2ccc(Nc3cc(-c4[nH]c(SC)nc4C)ccn3)cc2)c1

dTM [13]: < 2 K
Structure (SMILES): CN(C)CCCOc1ccc(-c2cc(NCCCn3cccn3)nc(S(C)(=O)=O)n2)cc1

From ChEMBL document CHEMBL5465560, “Selectivity Literature for EUbOPEN Chemogenomic Library” (2024)
